Data reported in ChEMBL document CHEMBL5608244, “Preclinical Evaluation of Dihydropyrazole-Cored Positron Emission Tomography (PET) Ligands for Imaging of Receptor-Interacting Serine/Threonine Protein Kinase 1 (RIPK1) in the Brain” (J Med Chem, 2024).

How the values were obtained:
[1] = Retention time of the compound by HPLC method; type: physicochemical
[2] = Stability in saline measured for 60 to 150 mins by reversed-phase HPLC analysis; type: physicochemical; conditions: buffer; time 60-150 min
[3] = Stability in Balb/c mouse plasma measured for 60 to 150 mins by reversed-phase HPLC analysis; type: ADME; conditions: time 60-150 min
[4] = Lipophilicity, logD of compound at pH 7.4 by shake flask method; type: physicochemical; conditions: buffer
[5] = Drug uptake in Sprague-Dawley rat brain at 10 to 17.6 MBq, iv treated for about 1 min by PET analysis; type: ADME, organism-based; conditions: in vivo, dose 10-17.6 MBq
[6] = Drug uptake in Sprague-Dawley rat bone at 10 to 17.6 MBq, iv treated upto 30 mins by PET analysis; type: ADME, organism-based, Bone element; conditions: in vivo, 0.5 h, dose 10-17.6 MBq
[7] = Drug uptake in Sprague-Dawley rat brain at 10 to 17.6 MBq, iv pretreated with 1-(5-(3-fluorophenyl)-4,5-dihydro-1H-pyrazol-1-yl)-2,2-dimethylpropan-1-one followed by compound administration measured upto 30 mins by PET analysis; type: ADME, organism-based; conditions: in vivo, 0.5 h, dose 10-17.6 MBq

| Retention_time [1] [min] | Stability [2] [%] | Stability [3] [%] | logD [4] | SUVmax [5] | Drug uptake [6] | Drug uptake [7] | SMILES |
| --- | --- | --- | --- | --- | --- | --- | --- |
| 13.76 | > 99 | > 97 | 2.58 | 1.8 | Not Active | Active | CC(C)(C)C(=O)N1N=CCC1c1cc(F)cc([18F])c1 (stereo not given) |
| 21.81 |  |  | 2.98 | 1.4 | Not Active | Active | Cc1ccc(C2CC=NN2C(=O)C(C)(C)C)cc1[18F] (stereo not given) |
| 13.66 |  |  |  |  |  |  | CC(C)(C)C(=O)N1N=CCC1c1cc(F)cc(F)c1 (stereo not given) |
| 21.74 |  |  |  |  |  |  | CC(C)(C)C(=O)N1N=CCC1c1cccc(F)c1 (stereo not given) |
| 21.7 |  |  |  |  |  |  | Cc1ccc(C2CC=NN2C(=O)C(C)(C)C)cc1F (stereo not given) |
